From patent US20210244712A1, “METHODS FOR TREATING PATIENTS WITH CANCER HAVING DEFECTS IN CYCLIN D REGULATION” (NysnoBio Ireland DAC, priority 2018, published 2021)

How the values were obtained:
[1] = tested on: cyclin D1; assay: Western blot of Cyclin D1 in Mino cells, Example 6C; assay type: cell-based; settings: compared to control (DMSO)
Procedure: Mino cells have a chromosomal translocation of the Cyclin D gene that increases expression of cyclin D1. Western blot analysis was then carried out to look at Cyclin D1 (Abeam—ab134175) and GAPDH (Sigma—G9545) levels after treatment with Compounds F, S3, 42, and 146.

[2] = tested on: cyclin D1; assay: Western blot of Cyclin D1, Example 6B; assay type: cell-based; settings: 250 nM, 24 h, compared to control (DMSO)
Procedure: Cells were plated at a density of 3×10^5 cells/well for 24 hrs. Representative compounds or DMSO alone was then added to the wells for 24 h at 250 nM (note: Compound F was administered at a concentration of 2 μM). Cells were trypsinised, pelleted, washed ×3 in PBS, and lysed using a 2% SDS lysis solution (Sigma—05030).
Western blot analysis was then carried out to look at Cyclin D1 (Abeam—ab134175), PRK8 (Sigma—P6248), Rb (Abeam—[…]) and GAPDH (Sigma—G9545) levels.

[3] = tested on: HCT-116 xenograft; assay: Subcutaneous HCT-116 xenograft model, tumor volume; assay type: in vivo, nude mice; settings: Groups 2-6 of Table 8 (Compound 42 1 and 5, Q3 5 and 15, F 25 mg/kg); IP daily for 20 days; 28 days; vs control
Procedure: The efficacy of Compound 42, Compound F, and Compound Q3 were evaluated in the treatment of subcutaneous HCT-116 xenograft model in nude mice.
Cell Culture: HCT-116 tumor cell lines were maintained in vitro as a monolayer culture in DMEM medium supplemented with 10% fetal bovine serum at 37° C. in an atmosphere of 5% CO2 in air. The tumor cells were routinely subcultured twice weekly by trypsin-EDTA treatment (0.05% Trypsin-EDTA) and 1:4 split: The cells in an exponential growth phase were harvested and counted for tumor inoculation.
Tumor Inoculation: Each, mouse was inoculated subcutaneously at the flank region with HCT-1.16 cells (1.0×106) in 0.1 ml of 1×PBS mixed with Matrigel (1:1) for tumor development. The day Xenotransplantation was performed is denoted as day 0.
Thirty (30) animals with approx 100-150 mm^3 tumors were selected for HCT-116 follow up experiment and randomly placed Into Groups 1, 2, […], 4, 5, and 6 as shown in Table 8.
Group Assignment: Before grouping and treatment, all animals were weighed and fee tumor volumes were confirmed (100-150 mm^3) using electronic caliper. Since the tumor volume can affect fee effectiveness of any given treatment mice into groups using randomized block design as following: First the experimental animals were divided into homogeneous blocks based on their tumor volume. Secondly, within each block, randomization of experimental animals to different groups By using randomized block design to assign experimental animals, we ensure that each animal has the same probability of being assigned to any given treatment groups and therefore systematic error is minimized.
(§1) Treatments were initiated when turner volume reached 100-150 mm^3. Treatments started on Day 5. Test compounds were administered intraperitoneally (II′) in 10 mg/mL solution comprising 10% N,N-dimethyl acetamide, 15% macrogol 15 hydroxy stearate, polyethylene glycol-15-hydroxystearate, and 75% aqueous hydroxypropyl-beta-cyclodextrin.
(§2) Observation and data collection: After tumor cells inoculation, the animals were checked daily for morbidity and mortality. At the time of routine monitoring, the animals were checked for any adverse effects of tumor growth and treatments on normal behavior such as mobility, visual estimation of food and water consumption, body weight gain/loss, eye/hair matting and any other abnormal effects, Death and observed clinical signs were recorded, per […] IACUC. Tumor volumes were measured every 3-4 days in two dimensions using an electronic caliper, sad the volume data are expressed in, mm3 using the formula: V=0.5 a×b^2 where a and b are fee long and short diameters of the tumor, respectively. Dosing and tumor volume measurement procedures were conducted in a Laminar Flow Cabinet according to Altogen Labs IACUC regulations.
Statistics: Summary statistics, the mean and the standard error of the mean (SEM), are provided for the tumor volume of each group at each time point. Statistical analysis of difference in tumor volume among the groups and the analysis of drug interaction were conducted on the data obtained after the final dose.

[4] = HCT-116 xenograft model, body weight and adverse events; assay type: in vivo; settings: Groups 2-6 of Table 8; IP daily for 20 days
Procedure: as §1, §2
Body weight loss daring fee study: Sacrifice fee mouse when one measurement of body weight loss (BWL)>20% (only for control animals). Animal research associated wife this study was conducted under Altogen Labs IACUC regulatory space. Altogen Labs IACUC guidelines were followed in case of BWL and any other conditions.

[5] = tested on: ubiquitinated proteins; assay: Mechanistic study: Ub (FK-2) western blot; assay type: cell-based; settings: ES-2; epoxomicin 60 nM; 18 hours
Procedure: In order to establish that the decrease in Cyclin D seen after Compound 42 treatment is due to proteasomal degradation, ES-2, ovarian cancer cell line was treated with Compound 42 (250 nM) in the presence or absence of epoxomicin, a specific inhibitor of the proteasome (60 nM) for 18 hours. Following the treatment, western blotting for Cyclin D (FIG. 10A), Ub (FK-2) (FIG. 10B), and GAPDH control (bottom blot, below FIGS. 10A and 10B) was performed. Epoxomicin is a specific inhibitor of the proteasome.

[6] = tested on: HCT-116; assay: Senescence quantification (SA-βGal), Example 6A; assay type: cell-based; settings: Compound 42 250 nM, Palbociclib 1 μM
Procedure: Day 1: 96 well plate was seeded with 4000 cells/well and incubated for 24 hours at 37° C. […]
Day 6: Senescence cells histochemical Staining Kit (Sigma) was used. The growth medium form the cells were aspirated then washed twice with fresh […]. […] 100 μL filtered Fixation Buffer was added per well and the plate was incubated for 6-7 minutes at room temperature. Then, the cells were rinsed 3 times with PBS. 50 μL of the Staining Mixture was added per well and incubated at 37° C. overnight without CO2 (staining is pH dependent). After staining, the Staining Mixture was removed, PBS and Hoechst dye (1 μg/mL) were added. Ten images were taken with Epifluorescence Microscope using the blue filter and 10 images were taken in the brightfield. The images were used to count the total cell number—the positive blue cells were counted in the bright field. The percentage of cells expressing β-galactosidase was calculated.
Method 1: Mammalian β-Galactosidase Assay Kit (Thermo Scientific) was used. […] The cells were washed once with PBS. 100 μL of the β-Galactosidase Assay Reagent was added to each well and the plate was covered and incubated for 30 minutes at 37° C. without CO2. The absorbance was measured at 405 nm. […]
Method 2: Assay of a portion of the lysate. […] 25 μL of lysate was removed and use it for Protein Quantification (BCA). […]
Senescence was quantified according to Example 4. […]

Row | Structure (SMILES) | cyclin D expression [1] | Cyclin D1 expression ([2]; HCT-116) | Cyclin D1 expression ([2]; TOV-112) | also measured
1 | Cc1ccccc1C(=O)Nc1nc(-c2ncccc2C)nn1-c1cccc(F)c1 [Compound 146] | appreciably reduce Cyclin D expression | reduction of Cyclin D1 expression | reduction of Cyclin D1 expression | 
2 | Cc1ccccc1C(=O)Nc1nc(NC(=O)c2ccccc2C)n(-c2ccc(Cl)cc2)n1 [Compound Q3] |  |  |  | tumor growth (tumor volume) [3]: reduce the tumor growth; weight loss or adverse events [4]: No weight loss or any adverse events
3 | Cc1ccccc1C(=O)Nc1nc(-c2ncccc2C)nn1-c1ccccc1 [Compound S3] | appreciably reduce Cyclin D expression | reduction of Cyclin D1 expression | reduction of Cyclin D1 expression | 
4 | CC[C@H](C)[C@H](NC(=O)[C@H]([C@@H](C)CC)N(C)C(C)=O)C(=O)N[C@H](C(=O)N[C@@H](CC(C)C)C(=O)[C@@]1(C)CO1)[C@@H](C)O [epoxomicin] |  |  |  | ubiquitinated proteins (FK-2 antibody) [5]: overall increase of ubiquitinated proteins
5 | CC(=O)c1c(C)c2cnc(Nc3ccc(N4CCNCC4)cn3)nc2n(C2CCCC2)c1=O [palbociclib, reference compound] |  |  |  | apoptosis or other cell death [6]: No apoptosis or other cell death was observed
